Experimental data: ChEMBL document CHEMBL4257493, “Discovery of 7-hydroxyaporphines as conformationally restricted ligands for beta-1 and beta-2 adrenergic receptors” (Medchemcomm, 2018)

Target: Beta-2 adrenergic receptor (Homo sapiens, UniProt P07550)
Test: Displacement of [3H]-CGP-12177 from human beta2-adrenergic receptor

Sequence of Beta-2 adrenergic receptor (P07550 whole entry): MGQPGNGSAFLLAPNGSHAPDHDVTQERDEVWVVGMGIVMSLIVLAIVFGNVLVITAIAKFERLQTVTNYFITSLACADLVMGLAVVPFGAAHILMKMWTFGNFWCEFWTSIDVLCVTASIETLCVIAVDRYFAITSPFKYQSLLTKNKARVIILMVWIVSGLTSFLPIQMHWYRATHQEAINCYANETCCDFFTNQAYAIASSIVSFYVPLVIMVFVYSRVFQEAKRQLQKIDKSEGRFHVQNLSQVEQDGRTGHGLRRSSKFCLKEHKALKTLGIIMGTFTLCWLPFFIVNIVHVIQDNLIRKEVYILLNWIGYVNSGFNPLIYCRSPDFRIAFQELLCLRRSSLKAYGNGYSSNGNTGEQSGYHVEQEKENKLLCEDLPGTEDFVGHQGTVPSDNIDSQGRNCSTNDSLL

| SMILES | IC50 [µM] |
| --- | --- |
| COc1ccc(CCNC[C@H](O)c2ccccc2)cc1OC | 8.4 |
| COc1cc2c(cc1OC)[C@H]([C@H](O)c1ccccc1)NCC2 | > 10 |
